# Source: US20250041429A1, “COMPOUND HAVING BTK PROTEIN DEGRADATION ACTIVITY, AND MEDICAL USES THEREOF” (UBIX THERAPEUTICS, INC., priority 2021, published 2025)
# Biological target: T1, BTK protein (Homo sapiens, UniProt Q06187)
# T1 construct: endogenous in cells; host or cells: TMD-8 cells
# Assay: Measurement of BTK protein degradation ability in TMD-8 cells (Western blotting)
# Assay type: cell-based
# Settings: harvested after 24 hours; for BTK degradation (%) 1 nM: compound 1 nM; for BTK degradation (%) 10 nM: compound 10 nM; for BTK degradation (%) 100 nM: compound 100 nM
# Method in brief: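 TMD-8 cells (1×10^6/mL) were treated for 24 h with compound at 0.1, 1, 10 μM or 0.0001–0.1 μM, with DMSO as vehicle control. RIPA lysates were normalized by BCA assay. BTK was detected by Western blot with anti-BTK, using GAPDH or β-actin as loading controls, and imaged on LI-COR Odyssey.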
# T1 sequence (Q06187 whole entry): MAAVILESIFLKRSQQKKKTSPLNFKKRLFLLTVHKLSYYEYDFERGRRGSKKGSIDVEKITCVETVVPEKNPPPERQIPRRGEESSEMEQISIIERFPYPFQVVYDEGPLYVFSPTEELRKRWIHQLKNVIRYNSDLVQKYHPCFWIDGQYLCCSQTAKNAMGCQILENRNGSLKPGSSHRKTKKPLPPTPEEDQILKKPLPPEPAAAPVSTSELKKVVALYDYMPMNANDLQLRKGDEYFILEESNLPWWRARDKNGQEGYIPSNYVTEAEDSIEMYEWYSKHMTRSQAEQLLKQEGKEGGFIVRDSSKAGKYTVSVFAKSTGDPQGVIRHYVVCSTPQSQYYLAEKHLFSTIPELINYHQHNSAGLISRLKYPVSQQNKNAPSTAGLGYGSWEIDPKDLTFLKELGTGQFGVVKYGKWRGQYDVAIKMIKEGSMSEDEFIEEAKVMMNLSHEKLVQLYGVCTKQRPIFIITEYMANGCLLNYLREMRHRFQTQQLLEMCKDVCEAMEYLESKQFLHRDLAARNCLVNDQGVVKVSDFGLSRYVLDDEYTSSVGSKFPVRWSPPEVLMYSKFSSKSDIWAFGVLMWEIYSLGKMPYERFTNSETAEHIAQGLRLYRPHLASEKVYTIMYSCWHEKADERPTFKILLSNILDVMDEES
Structure (SMILES),BTK degradation (%) 1 nM [%],BTK degradation (%) 10 nM [%],BTK degradation (%) 100 nM [%]
"Cc1cc(-c2ccnc(Nc3ccc(CN4CCN(CC5CCN(c6cccc(N7CCC(=O)NC7=O)c6)CC5)CC4)cc3)n2)ccc1CNC(=O)c1cn(C(C)(C)C)nn1 [Example 74, 1-(tert-butyl)-N-(4-(2-((4-((4-((1-(3-(2,4-dioxotetrahydropyrimidin-1 (2H)-yl)phenyl)piperidin-4-yl)methyl)piperazin-1-yl)methyl)phenyl)amino)pyrimidin-4-yl)-2-methylbenzyl)-1H-1,2,3-triazole-4-carboxamide]",43.0,91.5,96.5
"Cc1cc(-c2ccnc(Nc3ccc(CN4CCN(CC5CCN(c6ccc(N7CCC(=O)NC7=O)cc6)CC5)CC4)cc3)n2)ccc1CNC(=O)c1cn(C(C)(C)C)nn1 [Example 75, 1-(tert-butyl)-N-(4-(2-((4-((4-((1-(4-(2,4-dioxotetrahydropyrimidin-1 (2H)-yl)phenyl)piperidin-4-yl)methyl)piperazin-1-yl)methyl)phenyl)amino)pyrimidin-4-yl)-2-methylbenzyl)-1H-1,2,3-triazole-4-carboxamide]",14.0,87.0,98.0
Cc1cc(-c2ccnc(Nc3ccc(N4CCN(CC5CCN(c6cccc(N7CCC(=O)NC7=O)c6)CC5)CC4)nc3)n2)ccc1CNC(=O)c1cn(C(C)(C)C)nn1 [Example 76],55.0,96.5,100.0
Cc1cc(-c2ccnc(Nc3ccc(N4CCN(CC5CCN(c6ccc(N7CCC(=O)NC7=O)cc6)CC5)CC4)nc3)n2)ccc1CNC(=O)c1cn(C(C)(C)C)nn1 [Example 77],57.5,96.0,99.5
"Cc1cc(-c2ccnc(Nc3ccc(C4CCN(CC5CCN(c6cccc(N7CCC(=O)NC7=O)c6)CC5)CC4)cc3)n2)ccc1CNC(=O)c1cn(C(C)(C)C)nn1 [Example 78, 1-(tert-butyl)-N-(4-(2-((4-(1-((1-(3-(2,4-dioxotetrahydropyrimidin-1 (2H)-yl)phenyl)piperidin-4-yl)methyl)piperidin-4-yl)phenyl)amino)pyrimidin-4-yl)-2-methylbenzyl)-1H-1,2,3-triazole-4-carboxamide]",43.5,93.5,99.0
"Cc1cc(-c2ccnc(Nc3ccc(C4CCN(CC5CCN(c6ccc(N7CCC(=O)NC7=O)cc6)CC5)CC4)cc3)n2)ccc1CNC(=O)c1cn(C(C)(C)C)nn1 [Example 79, 1-(tert-butyl)-N-(4-(2-((4-(1-((1-(4-(2,4-dioxotetrahydropyrimidin-1 (2H)-yl)phenyl)piperidin-4-yl)methyl)piperidin-4-yl)phenyl)amino)pyrimidin-4-yl)-2-methylbenzyl)-1H-1,2,3-triazole-4-carboxamide]",26.0,92.5,98.0
"Cc1cc(-c2ccnc(Nc3ccc(N4CCN(CC5CCN(c6cccc(N7CCC(=O)NC7=O)c6)CC5)CC4)cc3)n2)ccc1CNC(=O)c1cnn(C(C)C)c1 [Example 80, N-(4-(2-((4-(4-((1-(3-(2,4-dioxotetrahydropyrimidin-1 (2H)-yl)phenyl)piperidin-4-yl)methyl)piperazin-1-yl)phenyl)amino)pyrimidin-4-yl)-2-methylbenzyl)-1-isopropyl-1H-pyrazole-4-carboxamide]",73.5,98.0,99.5
